For five compounds, probe binding remaining (% of control) results are on record in article PMC10720658 (Frontiers in parasitology, 2023).

T1 sequence (Q582V7 entry or part of it): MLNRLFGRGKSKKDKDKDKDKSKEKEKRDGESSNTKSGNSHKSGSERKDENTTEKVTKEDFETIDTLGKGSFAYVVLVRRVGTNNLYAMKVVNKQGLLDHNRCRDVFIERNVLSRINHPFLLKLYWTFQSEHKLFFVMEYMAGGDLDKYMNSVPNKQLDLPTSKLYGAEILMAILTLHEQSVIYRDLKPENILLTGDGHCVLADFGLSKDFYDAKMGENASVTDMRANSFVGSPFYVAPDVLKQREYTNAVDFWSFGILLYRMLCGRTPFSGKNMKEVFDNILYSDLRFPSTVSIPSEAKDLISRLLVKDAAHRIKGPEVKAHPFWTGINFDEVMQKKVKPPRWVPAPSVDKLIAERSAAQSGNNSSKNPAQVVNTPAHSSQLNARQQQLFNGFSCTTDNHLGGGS

This assay addresses T1, AEK1 (Trypanosoma brucei, UniProt Q582V7).
T1 construct: gene Tb03.48O8.470
The experiment in a line: TR-FRET displacement of probe SCP-2. Type of assay: binding. The conditions noted are these: read-out: % control^a. (In general: TR-FRET usually uses a lanthanide donor and a delayed reading to cut background.)
Consider `COc1cc2c(Oc3ccc4[nH]c(C)cc4c3F)ncnc2cc1OCCCN1CCCC1` [Cediranib (AZD2171)], for which the probe binding remaining (% of control) at 1 µM came to 36.6%.

As to `Cc1nc(Nc2[nH]nc3c2CN(C(=O)N[C@H](CN(C)C)c2ccccc2)C3(C)C)c2sccc2n1` [PF-3758309], the probe binding remaining (% of control) at 1 µM came to 38.2%.

Consider `Cn1cc(-c2[nH]c3cc(NC(=O)[C@H](N)C4CCCCC4)cc4c3c2C=NNC4=O)cn1` [PF-477736], for which the probe binding remaining (% of control) at 1 µM came to 23.1%.

Turning to `CCS(=O)(=O)c1cccc(-c2cc(C(=O)NC3CCN(C)CC3)c(C)c3[nH]c4ncc(C)cc4c23)c1` [TAK-901], the probe binding remaining (% of control) at 1 µM was 20.1%.

For `Cc1c[nH]c2nc(Nc3ccc(N4CCN(C)CC4)c(F)c3)nc(-c3cccc(CC#N)c3)c12` [SGI-7079], the probe binding remaining (% of control) at 1 µM was 43.7%.
